In US20110028686A1, “Protein binding miniature proteins” (Yale University, priority 2000, published 2011):
Square brackets hold non-standard residues; d marks the D form. Ends that are not written are not given here. Peptide text beside a SMILES is read from it. * marks the point of attachment. X1 = C[C@]12O[C@H](C[C@]1(O)C(=O)NCCCCCCCCNC(=O)C*)n1c3ccccc3c3c4c(c5c6ccccc6n2c5c31)CNC4=O; Fluorescein(5-NHCOCH2) = O=C(C*)Nc1ccc2c(c1)C(=O)OC21c2ccc(O)cc2Oc2cc(O)ccc21; pS = N[C@@H](COP(=O)(O)O)C(=O)O

What was measured:
catalytic subunit of PKA = catalytic subunit of PKA (Homo sapiens, UniProt P17612); assay: Fluorescence polarization, affinity for PKA catalytic subunit; assay type: binding
PKA = PKA (Homo sapiens, UniProt P17612); assay: PKA phosphotransferase assay, streptavidin-matrix capture of [32P]-phosphorylated substrates; assay type: biochemical
Akt kinase (PKB) = Akt kinase (PKB) (Homo sapiens, UniProt P31749); assay: Phosphotransferase assay, PKB; assay type: biochemical; settings: 1-K252a up to 100 nM; 1 up to 5 μM
[1] = target: protein kinase Cα (PKC-α) (Homo sapiens, UniProt P17252); assay: Phosphotransferase assay, PKC-α; assay type: biochemical; settings: 1-K252a up to 100 nM; 1 up to 5 μM
[2] = system: Ca++/calmodulin kinase II (CamKII); assay: Phosphotransferase assay, CamKII; assay type: biochemical; settings: 1-K252a up to 100 nM; 1 up to 5 μM
[3] = system: cGMP-dependent protein kinase (PKG); assay: Phosphotransferase assay, PKG; assay type: biochemical; settings: for inhibition of PKG phosphotransferase activity: 1 up to 5 μM
[4] = target: T1, HisKIX (His-tagged CBP KIX domain) (Mus musculus, UniProt P45481); assay: Equilibrium fluorescence polarization, HisKIX binding
T1 construct: The CBP KIX-coding region (residues 586 to 672) of pGEX-KT KIX 10-672; made in house; host or cells: E. coli BL21(DE3) pArg

CBP KIX Y658F = target: T2, CBP KIX Y658F (Mus musculus, UniProt P45481, Y658F); assay: Equilibrium fluorescence polarization, CBP KIX variant Y658F; assay type: binding
T2 construct: made in house; host or cells: E. coli BL21(DE3) pArg

CBP KIX K662A = target: T3, CBP KIX K662A (Mus musculus, UniProt P45481, K662A); assay: Equilibrium fluorescence polarization, CBP KIX variant K662A; assay type: binding
T3 construct: made in house; host or cells: E. coli BL21(DE3) pArg

CBP KIX Y650A = target: T4, CBP KIX Y650A (Mus musculus, UniProt P45481, Y650A); assay: Equilibrium fluorescence polarization, CBP KIX variant Y650A; assay type: binding
T4 construct: made in house; host or cells: E. coli BL21(DE3) pArg

CBP KIX L603A = target: T5, CBP KIX L603A (Mus musculus, UniProt P45481, L603A); assay: Equilibrium fluorescence polarization, CBP KIX variant L603A; assay type: binding
T5 construct: made in house; host or cells: E. coli BL21(DE3) pArg

CBP KIX LL652-3AA = target: T6, CBP KIX LL652-3AA (Mus musculus, UniProt P45481, L652A/L653A); assay: Equilibrium fluorescence polarization, CBP KIX variant LL652-3AA; assay type: binding
T6 construct: made in house; host or cells: E. coli BL21(DE3) pArg

CBP KIX K606A = target: T7, CBP KIX K606A (Mus musculus, UniProt P45481, K606A); assay: Equilibrium fluorescence polarization, CBP KIX variant K606A; assay type: binding
T7 construct: made in house; host or cells: E. coli BL21(DE3) pArg

CBP KIX I657A = target: T8, CBP KIX I657A (Mus musculus, UniProt P45481, I657A); assay: Equilibrium fluorescence polarization, CBP KIX variant I657A; assay type: binding
T8 construct: made in house; host or cells: E. coli BL21(DE3) pArg

CBP KIX L599A = target: T9, CBP KIX L599A (Mus musculus, UniProt P45481, L599A); assay: Equilibrium fluorescence polarization, CBP KIX variant L599A; assay type: binding
T9 construct: made in house; host or cells: E. coli BL21(DE3) pArg

Bcl-2 = Bcl-2 (Homo sapiens, UniProt P10415); assay: Bcl-2 binding by fluorescence emission of fluorescein-labeled peptide; settings: read-out: Kd for binding to Bcl-2, 4° C., PBS
Sequence of Bcl-2 (P10415 1-205): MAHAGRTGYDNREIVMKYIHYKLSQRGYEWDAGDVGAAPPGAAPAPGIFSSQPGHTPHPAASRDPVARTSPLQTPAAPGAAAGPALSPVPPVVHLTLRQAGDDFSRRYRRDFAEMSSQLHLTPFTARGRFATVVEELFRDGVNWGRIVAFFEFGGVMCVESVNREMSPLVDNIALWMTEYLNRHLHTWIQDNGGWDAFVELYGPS

Sequence of Akt kinase (PKB) (P31749 whole entry, species assumed): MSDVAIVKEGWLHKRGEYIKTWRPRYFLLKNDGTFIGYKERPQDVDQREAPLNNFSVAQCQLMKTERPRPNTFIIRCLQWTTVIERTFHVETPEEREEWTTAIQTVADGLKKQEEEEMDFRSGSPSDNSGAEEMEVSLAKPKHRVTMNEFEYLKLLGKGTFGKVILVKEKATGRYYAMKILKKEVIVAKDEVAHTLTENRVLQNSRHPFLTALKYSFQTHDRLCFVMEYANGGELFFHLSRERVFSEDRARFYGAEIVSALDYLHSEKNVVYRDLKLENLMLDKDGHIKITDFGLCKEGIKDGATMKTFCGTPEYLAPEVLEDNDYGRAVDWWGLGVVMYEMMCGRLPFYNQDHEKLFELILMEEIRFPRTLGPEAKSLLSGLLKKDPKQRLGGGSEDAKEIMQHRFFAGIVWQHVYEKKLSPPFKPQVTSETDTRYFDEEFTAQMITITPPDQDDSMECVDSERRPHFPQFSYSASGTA
T6 sequence (P45481 586-665 L652A/L653A): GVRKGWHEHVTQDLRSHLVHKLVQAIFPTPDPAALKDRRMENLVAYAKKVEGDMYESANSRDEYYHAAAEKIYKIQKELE
T1 sequence (P45481 586-672): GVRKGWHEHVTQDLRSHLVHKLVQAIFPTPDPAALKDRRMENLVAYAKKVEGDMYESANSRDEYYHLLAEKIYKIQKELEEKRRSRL
T7 sequence (P45481 586-665 K606A limits assumed): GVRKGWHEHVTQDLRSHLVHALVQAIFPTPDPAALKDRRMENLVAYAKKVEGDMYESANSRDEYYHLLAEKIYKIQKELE
T9 sequence (P45481 586-665 L599A limits assumed): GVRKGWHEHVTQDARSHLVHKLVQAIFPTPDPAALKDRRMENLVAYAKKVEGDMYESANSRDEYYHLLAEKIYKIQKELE
T5 sequence (P45481 586-665 L603A limits assumed): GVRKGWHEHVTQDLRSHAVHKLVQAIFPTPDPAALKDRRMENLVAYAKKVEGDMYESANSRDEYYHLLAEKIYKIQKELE
T2 sequence (P45481 586-665 Y658F limits assumed): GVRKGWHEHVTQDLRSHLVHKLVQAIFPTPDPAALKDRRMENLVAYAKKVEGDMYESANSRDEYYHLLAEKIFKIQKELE
T4 sequence (P45481 586-665 Y650A limits assumed): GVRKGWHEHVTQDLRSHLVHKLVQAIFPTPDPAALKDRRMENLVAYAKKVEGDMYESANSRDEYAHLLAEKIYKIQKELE
T8 sequence (P45481 586-665 I657A limits assumed): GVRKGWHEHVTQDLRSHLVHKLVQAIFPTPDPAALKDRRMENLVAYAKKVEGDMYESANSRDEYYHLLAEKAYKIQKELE
T3 sequence (P45481 586-665 K662A limits assumed): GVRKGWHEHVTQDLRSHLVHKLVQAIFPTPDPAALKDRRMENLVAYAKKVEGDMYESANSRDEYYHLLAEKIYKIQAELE

Compound: CC[C@H](C)[C@H](NC(=O)[C@H](C)NC(=O)[C@H](CC(N)=O)NC(=O)[C@H](CCCNC(=N)N)NC(=O)[C@H](CCCNC(=N)N)NC(=O)CNC(=O)[C@@H](NC(=O)[C@@H](NC(=O)CNC(=O)[C@H](CC(C)C)NC(=O)[C@H](Cc1ccc(O)cc1)NC(=O)[C@@H](NC(=O)[C@H](Cc1ccccc1)NC(=O)[C@H](CC(C)C)NC(=O)[C@H](C)NC(=O)[C@H](Cc1ccc(O)cc1)NC(=O)[C@@H](NC(=O)[C@H](Cc1ccccc1)NC(=O)[C@H](CCCNC(=N)N)NC(=O)[C@@H](NC(=O)[C@H](CC(C)C)NC(=O)[C@H](CC(=O)O)NC(=O)[C@H](CCC(=O)O)NC(=O)[C@@H](NC(=O)[C@@H]1CCCN1C(=O)[C@H](C)NC(=O)[C@H](CC(=O)O)NC(=O)[C@H](CC(=O)O)NC(=O)CNC(=O)[C@@H]1CCCN1C(=O)[C@H](Cc1ccc(O)cc1)NC(=O)[C@@H](NC(=O)[C@@H]1CCCN1C(=O)[C@H](CCC(N)=O)NC(=O)[C@H](CO)NC(=O)[C@@H]1CCCN1C(=O)CN)[C@@H](C)O)C(C)C)[C@@H](C)CC)[C@@H](C)O)[C@@H](C)CC)C(C)C)C(C)C)C(=O)N[C@@H](Cc1c[nH]cn1)C(=O)N[C@@H](CC(=O)O)C(=O)N[C@@H](CSCC(=O)Nc1ccc2c(c1)C(=O)OC21c2ccc(O)cc2Oc2cc(O)ccc21)C(N)=O [2^Flu] (H-GPSQPTYPGDDAPVEDLIRFTYALFIYLGVVGRRNAIHDC(Fluorescein(5-NHCOCH2))-NH2; N-terminus and C-terminus assumed)
- Kd (catalytic subunit of PKA; presence of 100 μM ATP): 570 ± 123 nM

Compound: COC(=O)[C@@]1(O)C[C@H]2O[C@]1(C)n1c3ccccc3c3c4c(c5c6ccccc6n2c5c31)C(=O)NC4 [K252a, reference compound]
- IC50 (PKA; ATP and peptide substrate below KM): 0.14 ± 0.003 nM
- inhibition of PKB phosphotransferase activity (Akt kinase (PKB)): inhibited by K252a
- inhibition of PKC-α phosphotransferase activity [1]: inhibited by K252a
- inhibition of CamKII phosphotransferase activity [2]: inhibited by K252a
- inhibition of PKG phosphotransferase activity [3]: inhibited by K252a

Compound: CC[C@H](C)[C@H](NC(=O)[C@H](CCCCN)NC(=O)[C@H](CCCNC(=N)N)NC(=O)[C@H](Cc1ccc(O)cc1)NC(=O)[C@H](COP(=O)(O)O)NC(=O)[C@@H]1CCCN1C(=O)[C@H](CCCNC(=N)N)NC(=O)[C@H](CCCNC(=N)N)NC(=O)[C@H](CO)NC(=O)[C@H](CC(C)C)NC(=O)[C@@H](NC(=O)[C@H](CCC(=O)O)NC(=O)[C@H](CCCNC(=N)N)NC(=O)[C@H](CCCNC(=N)N)NC(=O)[C@H](CCCCN)NC(=O)[C@H](CCC(N)=O)NC(=O)[C@H](CO)NC(=O)[C@H](CC(=O)O)NC(=O)[C@@H](N)[C@@H](C)O)[C@@H](C)CC)C(=O)N[C@@H](CC(C)C)C(=O)N[C@@H](CC(N)=O)C(=O)N[C@@H](CC(=O)O)C(=O)N[C@@H](CC(C)C)C(=O)N[C@@H](CO)C(=O)N[C@@H](CO)C(=O)N[C@@H](CC(=O)O)C(=O)N[C@@H](C)C(=O)N1CCC[C@H]1C(=O)NCC(=O)N[C@H](C(=O)N[C@@H](CSCC(=O)Nc1ccc2c(c1)C(=O)OC21c2ccc(O)cc2Oc2cc(O)ccc21)C(N)=O)C(C)C [KID-AB, reference compound] (H-TDSQKRREILSRRP[pS]YRKILNDLSSDAPGVC(Fluorescein(5-NHCOCH2))-NH2)
- ΔΔG of HisKIX binding upon phosphorylation [4]: > 3.2 kcal/mol
- ΔΔG vs wild type CBP KIX, Y658F (CBP KIX Y658F): 2.5 kcal/mol
- ΔΔG vs wild type CBP KIX, K662A (CBP KIX K662A): 1.5 kcal/mol
- ΔΔG vs wild type CBP KIX, Y650A (CBP KIX Y650A): 1.8 kcal/mol
- ΔΔG vs wild type CBP KIX, L603A (CBP KIX L603A): 1.2 kcal/mol
- ΔΔG vs wild type CBP KIX, LL652-3AA (CBP KIX LL652-3AA): 1.2 kcal/mol
- ΔΔG vs wild type CBP KIX, K606A (CBP KIX K606A): 1.0 kcal/mol
- ΔΔG vs wild type CBP KIX, I657A (CBP KIX I657A): 0.9 kcal/mol
- ΔΔG vs wild type CBP KIX, L599A (CBP KIX L599A): 0.58 kcal/mol

Compound: CC[C@H](C)[C@H](NC(=O)[C@H](CC(=O)O)NC(=O)[C@H](CC(=O)O)NC(=O)CNC(=O)[C@H](Cc1ccccc1)NC(=O)[C@H](Cc1ccc(O)cc1)NC(=O)[C@H](C)NC(=O)[C@H](CC(C)C)NC(=O)[C@H](CC(C)C)NC(=O)[C@H](CCCNC(=N)N)NC(=O)CNC(=O)[C@@H](NC(=O)[C@H](Cc1ccccc1)NC(=O)[C@H](CCCNC(=N)N)NC(=O)[C@@H](NC(=O)[C@H](CC(C)C)NC(=O)[C@H](CC(=O)O)NC(=O)[C@H](CCC(=O)O)NC(=O)[C@@H](NC(=O)[C@@H]1CCCN1C(=O)[C@H](C)NC(=O)[C@H](CC(=O)O)NC(=O)[C@H](CC(=O)O)NC(=O)CNC(=O)[C@@H]1CCCN1C(=O)[C@H](Cc1ccc(O)cc1)NC(=O)[C@@H](NC(=O)[C@@H]1CCCN1C(=O)[C@H](CCC(N)=O)NC(=O)[C@H](CO)NC(=O)[C@@H]1CCCN1C(=O)CN)[C@@H](C)O)C(C)C)[C@@H](C)CC)C(C)C)C(=O)N[C@@H](CC(N)=O)C(=O)N[C@@H](CCCNC(=N)N)C(=O)N[C@@H](CCCNC(=N)N)C(=O)N[C@@H](Cc1ccc(O)cc1)C(=O)N[C@@H](CSCC(=O)Nc1ccc2c(c1)C(=O)OC21c2ccc(O)cc2Oc2cc(O)ccc21)C(N)=O [p4101] (H-GPSQPTYPGDDAPVEDLIRFVGRLLAYFGDDINRRYC(Fluorescein(5-NHCOCH2))-NH2)
- Kd (Bcl-2): 811 ± 20 nM

Compound: CC[C@H](C)[C@H](NC(=O)[C@H](Cc1ccc(O)cc1)NC(=O)[C@H](CCCNC(=N)N)NC(=O)[C@H](CC(C)C)NC(=O)[C@H](CCCNC(=N)N)NC(=O)[C@H](CO)NC(=O)[C@@H](NC(=O)[C@H](Cc1ccccc1)NC(=O)[C@H](CCCNC(=N)N)NC(=O)[C@@H](NC(=O)[C@H](CC(C)C)NC(=O)[C@H](CC(=O)O)NC(=O)[C@H](CCC(=O)O)NC(=O)[C@@H](NC(=O)[C@@H]1CCCN1C(=O)[C@H](C)NC(=O)[C@H](CC(=O)O)NC(=O)[C@H](CC(=O)O)NC(=O)CNC(=O)[C@@H]1CCCN1C(=O)[C@H](Cc1ccc(O)cc1)NC(=O)[C@@H](NC(=O)[C@@H]1CCCN1C(=O)[C@H](CCC(N)=O)NC(=O)[C@H](CO)NC(=O)[C@@H]1CCCN1C(=O)CN)[C@@H](C)O)C(C)C)[C@@H](C)CC)C(C)C)C(=O)N[C@@H](C)C(=O)N[C@@H](CC(=O)O)C(=O)N[C@@H](CC(C)C)C(=O)N[C@H](C(=O)N[C@@H](CC(N)=O)C(=O)N[C@@H](CCCNC(=N)N)C(=O)N[C@@H](CCCNC(=N)N)C(=O)N[C@@H](Cc1ccc(O)cc1)C(=O)N[C@@H](CSCC(=O)Nc1ccc2c(c1)C(=O)OC21c2ccc(O)cc2Oc2cc(O)ccc21)C(N)=O)[C@@H](C)CC [p4102] (H-GPSQPTYPGDDAPVEDLIRFVSRLRYIADLINRRYC(Fluorescein(5-NHCOCH2))-NH2)
- Kd (Bcl-2): 3700 ± 1400 nM

Compound: GPSQPTYPGDDAPVEDLIRFYNDLTYYLFVVSGRTGRRNAIHDC(Fluorescein(5-NHCOCH2))-NH2 (C-terminus assumed) [1^Flu]
- fold lower stability of PKA complex than PKA·PKI5-24^Flu (catalytic subunit of PKA; 100 μM ATP): 3 fold
- Kd (catalytic subunit of PKA; absence of ATP): 230 ± 34 nM
- Kd (catalytic subunit of PKA; presence of 100 μM ATP): 99 ± 39 nM

Compound: GPSQPTYPGDDAPVEDLIRFYNDLTYYLFVVSGRTGRRNAIHDC-NH2 (C-terminus assumed) [compound 1]
- inhibition of PKB phosphotransferase activity (Akt kinase (PKB)): inhibiting no other kinase tested
- inhibition of PKC-α phosphotransferase activity [1]: inhibiting no other kinase tested
- inhibition of CamKII phosphotransferase activity [2]: inhibiting no other kinase tested
- inhibition of PKG phosphotransferase activity [3]: inhibiting no other kinase tested

Compound: GPSQPTYPGDDAPVEDLIRFYNDLTYYLFVVSGRTGRRNC(X1)IHD-NH2 (C-terminus assumed) [1-K252a]
- fold more potent than 1 alone (PKA) (PKA): 30 fold
- inhibition of PKB phosphotransferase activity (Akt kinase (PKB)): inhibiting no other kinase tested
- inhibition of PKC-α phosphotransferase activity [1]: inhibiting no other kinase tested
- inhibition of CamKII phosphotransferase activity [2]: inhibiting no other kinase tested
- IC50 [3]: 679 ± 202 nM
